Measured values as given in publication PMC8699537, “In Vitro Anti-SARS-CoV-2 Activity of Selected Metal Compounds and Potential Molecular Basis for Their Actions Based on Computational Study” (Biomolecules, 2021).
Where two headings read alike, the source gives them in different places.

Assays:
[1] = tested on: SARS-CoV-2; experiment: microbe, parasite or virus in culture; format: cell-based; details: for IC50 (half-maximal inhibitory concentration), DYRA / IC50: Calu-3 cells, SARS-CoV-2 lineage B.1, 48h, DYRA; for IC50: read-out: IC50 (half-maximal inhibitory concentration), DYRA
[2] = tested on: SARS-CoV-2; format: cell-based; details: for IC50 (half-maximal inhibitory concentration), SYRA: DYRA supernatants on VERO E6 cells, 24 h
[3] = tested on: Calu-3 cells; experiment: Cytotoxicity, CellTiter-Glo 2.0 Luminescent Cell Viability Assay; details: read-out: CC50 (half-maximal cytotoxic concentration), 48h exposure
[4] = tested on: SARS-CoV-2; design: method as in PMID 32442105; details: Huh-7 cells; viral RNA in cell supernatant; cited from earlier work
[5] = tested on: Huh-7 cells; design: method as in PMID 32442105; details: cited from earlier work
[6] = in vitro; details: human

SMILES | IC50 (half-maximal inhibitory concentration), DYRA [1] | IC50 (half-maximal inhibitory concentration), SYRA [2] | CC50 [3] | also measured
CC[P](CC)(CC)[Au][I] [Au(Pet3)I] | Not active ^3 | Not active ^3 | 12 µM | 
CCOC(=O)CN(C)C1=[S+][Au-]([Br])([Br])[S]1 [AuL12] | Not active ^3 | Not active ^3 | 19 µM | 
CC(=O)OC[C@H]1O[C@@H]([S-])[C@H](OC(C)=O)[C@@H](OC(C)=O)[C@@H]1OC(C)=O.CCP(CC)CC.[Au+] [Auranofin] | Not active ^3 | Not active ^3 | 3.7 µM | IC50 [4]: 1.4 µM; CC50 [5]: 5.7 µM
Cl.[Cl-].[Cl-].[Cl-].[Ru+3].c1ccc2[nH]ncc2c1.c1ccc2[nH]ncc2c1.c1ccc2[nH]ncc2c1 [KP1019] |  |  | 60 µM | IC50 [1]: 8.8 ± 1.5 µM
CS(C)=O.[Cl-].[Cl-].[Cl-].[Cl-].[Ru+3].c1c[nH+]c[nH]1.c1c[nH]cn1 [NAMI-A] | Not active ^3 | Not active ^3 |  | 
Cl.[Cl-].[Cl-].[Cl-].[Ru+3].c1c[nH]cn1.c1c[nH]cn1 [NAMI-A] |  |  | > 200 µM | 
CCC(CC)COC(=O)[C@H](C)N[P@](=O)(OC[C@H]1O[C@@](C#N)(c2ccc3c(N)ncnn23)[C@H](O)[C@@H]1O)Oc1ccccc1 [Remdesivir] |  |  |  | Selectivity Index ([1]; CC50/IC50 ratio, IC50 from DYRA): 485; IC50 ([1]; Severe acute respiratory syndrome coronavirus 2): 0.2 ± 0.05 µM; CC50 [6]: 97 µM
[Cl][Sb]([Cl])[Cl] [SbCl3, antimony trichloride] |  |  | 200 µM | IC50 [1]: 31.1 ± 15.3 µM
[Cl-].[Cl-].[Ti+4].c1cc[cH-]c1.c1cc[cH-]c1 [TiCp2Cl2, Titanocene dichloride] |  |  | > 200 µM | IC50 ([2]; read-out: IC50 (half-maximal inhibitory concentration), SYRA): 47.3 µM
